This note sets out measurements from patent US10654866B2, “Selective estrogen receptor degraders” (Eli Lilly and Company, priority 2018, dated 2020).

One assay has as its target ERα (wild type) (Homo sapiens (Human), UniProt P03372). Put plainly: ERα (wild type) competition binding assay. The settings on record: 3H-estradiol competition; Ki from IC50 by Cheng-Prusoff. On the procedure: (§1) Add the test compound at 10 different concentrations ranging from 10,000 nM to 0.5 nM, and determine nonspecific binding in the presence of 1 μM of 1713 estradiol. Incubate the binding reaction (140 μL) for 4 hours at room temperature, and then add cold dextran-charcoal buffer (70 μL) (containing per 50 mL of assay buffer, 0.75 g of charcoal and 0.25 g of dextran) to each reaction. Mix the plates for 8 minutes on an orbital shaker at 4° C. and then centrifuge at 3000 rpm at 4° C. for 10 minutes. Transfer an aliquot (120 μL) of the mixture to another 96-well, white flat bottom plate (Costar) and add Perkin Elmer Optiphase Supermix scintillation fluid (175 μL) to each well. Seal the plates and shake vigorously on an orbital shaker. After an incubation of 2.5 hours, read the plates in a Wallac Microbeta counter. […] Convert the IC50 values for the compound to Ki using Cheng-Prusoff equation.

Assay [1] concerns the target T1, ERα (Homo sapiens (Human), UniProt P03372). In words: ERα degradation assay in MCF7 cells. It counts as cell-based. The settings on record: 24 hours, % ER positive cells, read-out: Relative IC50. On the procedure: The purpose of the following ERα degradation assay is to measure the degradation of ERα by a test compound in an ERα positive breast cancer cell line such as MCF7.
Culture MCF7 (purchased from ATCC HTB-22) cells in DMEM media supplemented with 10% FBS, 0.01 mg/mL human insulin 1 and 1% penicillin/streptomycin antibiotics and plate in 384-well flat-bottom plates at a density of 4,000 cells per well in phenol red free DMEM media (20 μL) containing 10% charcoal stripped FBS. Incubate the cells overnight in a cell culture incubator (5% CO2, 95% relative humidity and 37° C.) and allow the cells to attach to the plate. The following day dose the cells with the test compound. Use an Echo 555 acoustic dispenser to prepare test compound serial dilutions (1:3) in a range from 6 μM to 0.0003 μM. Dose the cells with the addition of 5 μL from the serial dilution plate to the cell plate producing a final DMSO concentration of 0.2% with a final test compound concentration dose range between 2 and 0.0001 μM. For the maximum point, use media containing 0.2% of DMSO and for the minimum point, use fulvestrant diluted at 2 μM final concentrations in the growth media containing 0.2% DMSO. After dosing with the test compound, incubate the cell plates at 37° C. and 5% CO2 for 24 hours. Fix the cells by adding 14% para-formaldehyde (10 μL) for 30 minutes at room temperature. Wash the cells once with PBS (20 μL) and incubate with PBS (20 μL) containing 0.5% (v/v) TWEEN® 20 for 1 hour. Wash the cells with PBS containing 0.05% TWEEN® 20 (2×) and block with 3% BSA in PBS containing 0.05% TWEEN® 20 and 0.1% TRITON™ X-100 (20 μL/well) for 1 hour at room temperature. Add 1:500 Primary antibody (20 μL) (ERα (Clone SP1) monoclonal rabbit antibody # RM-9101-S, Thermo Scientific) dilution in 1% BSA in PBS containing 0.05% TWEEN® 20 per well, seal the plates and incubate overnight at 4° C. The following day wash the cells with PBS containing 0.05% TWEEN® 20 (2×) and incubate with secondary antibody (20 μL/well) (1:1000 dilution, Goat anti-rabbit IgM ALEXA FLUOR™ 488) in PBS 1% BSA for 105 minutes at room temperature. […] Seal the plates and incubate 1 hour at room temperature on the bench (preserved from light). Scan the plates with ACUMEN EXPLORER™ [Laser-scanning fluorescence microplate cytometer manufactured by TTP LABTECH LTD] to measure ERα. Image analysis is based on cellular fluorescent signals for identifying positive cells. Identify ER positive cells by mean intensity. Use total intensity at 575-640 nm from propidium iodide/DNA to identify individual cells. Assay output is % ER positive cells. Determine the IC50 by curve fitting to a four parameter logistic for each output using GENE DATA™.

A further assay addresses ERα (Y537S mutant) (Homo sapiens (Human), UniProt P03372, Y537S). In words: ERα (Y537S mutant) competition binding assay. The settings on record: 3H-estradiol competition; Ki from IC50 by Cheng-Prusoff. The procedure:
as §1

For assay [2], the target named is T1, ERα. In words: PRα inhibition (ERα functional antagonism) cell assay in MCF7 cells. Format: cell-based. The settings on record: MCF7 cells pretreated with 0.47 nM estradiol, % PRα positive cells; read-out: Relative IC50. From the text:
The purpose of the following PRα inhibition (ERα functional antagonism) cell assay is to determine the antagonistic activity of a test compound against the ERα receptor. An antagonist in this assay is expected to block the function of the ERα receptor.
Carry out the assay conditions as detailed in the ERα degradation Cell base Acumen assay above, using the MCF7 cell line except that, prior to test compound dispensing, remove the media from the cell plate and pretreat all wells except for the negative control wells (column 24 of the plate) with assay media containing 0.47 nM estradiol for 30 minutes. In this assay, carry out immunostaining for the detection of PRα and scan the plates with ACUMEN EXPLORER™ [Laser-scanning fluorescence microplate cytometer manufactured by TTP LABTECH LTD] to measure PRα. Image analysis is based on cellular fluorescent signals for identifying positive cells. Identify PRα positive cells by mean intensity. Use total intensity at 575-640 from propidium iodide/DNA to identify individual cells. Assay output is % PRα positive cells. Determine the IC50 by curve fitting to a four parameter logistic for each output using GENE DATA™.

ERα (Y537S mutant), sequence (P03372 whole entry Y537S): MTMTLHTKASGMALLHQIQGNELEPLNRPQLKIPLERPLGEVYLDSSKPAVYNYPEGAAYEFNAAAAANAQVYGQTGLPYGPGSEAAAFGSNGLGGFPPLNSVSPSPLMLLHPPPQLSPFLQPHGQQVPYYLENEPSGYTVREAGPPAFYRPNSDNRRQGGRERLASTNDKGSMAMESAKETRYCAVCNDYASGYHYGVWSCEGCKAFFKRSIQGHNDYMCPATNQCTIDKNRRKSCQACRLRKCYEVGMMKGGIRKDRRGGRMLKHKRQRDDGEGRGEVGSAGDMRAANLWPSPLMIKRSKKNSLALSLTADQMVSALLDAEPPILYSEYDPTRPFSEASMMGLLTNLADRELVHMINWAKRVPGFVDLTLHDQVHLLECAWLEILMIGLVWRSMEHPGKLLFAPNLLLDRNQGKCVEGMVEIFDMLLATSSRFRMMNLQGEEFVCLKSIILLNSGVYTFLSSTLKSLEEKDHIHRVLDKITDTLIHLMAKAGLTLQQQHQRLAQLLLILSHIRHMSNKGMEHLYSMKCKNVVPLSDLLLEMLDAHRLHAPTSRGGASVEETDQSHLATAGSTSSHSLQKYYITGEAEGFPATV
T1 sequence (P03372 whole entry): as the sequence (P03372 whole entry Y537S) above, with S537Y counted along it
ERα (wild type), sequence (P03372 whole entry): as the sequence (P03372 whole entry Y537S) above, with S537Y counted along it

For orientation: Ki means a measure of affinity in units of concentration, obtained from inhibition or displacement. High values mean lower affinity, low ones higher affinity. As usually defined, the IC50 is the concentration at which inhibition is half-maximal. Turning to `Oc1ccc2c3c(cnc2c1)-c1cccc(C(F)(F)F)c1OC3c1ccc(OCCN2CC(CF)C2)cc1` (racemic) [Example 2, 5-(4-{2-[3-(fluoromethyl)azetidin-1-yl]ethoxy}phenyl)-7-(trifluoromethyl)-5H-[1]benzopyrano[4,3-c]quinolin-2-ol], the values for the Ki on ERα (wild type) and on ERα (Y537S mutant) were 2.17 nM and 6.78 nM, respectively. In addition, the DC50 at ERα [1] turned out to be 0.0522 ± 0.00651 µM. In addition, the IC50 at ERα [2] turned out to be 0.163 µM.
For `Oc1ccc2c3c(cnc2c1)-c1cccc(Cl)c1OC3c1ccc(OCCN2CC(CF)C2)cc1` (racemic) [Example 4, 7-chloro-5-(4-{2-[3-(fluoromethyl)azetidin-1-yl]ethoxy}phenyl)-5H-[1]benzopyrano[4,3-c]quinolin-2-ol] the same measures were 0.64 nM, 12.1 nM, 0.0224 ± 0.000355 µM and 0.0763 ± 0.168 µM.
On the same counts, the results for `Oc1ccc2c3c(cnc2c1)-c1ccc(F)cc1OC3c1ccc(OCCN2CC(CF)C2)cc1` (racemic) [Example 5, 8-fluoro-5-(4-{2-[3-(fluoromethyl)azetidin-1-yl]ethoxy}phenyl)-5H-[1]benzopyrano[4,3-c]quinolin-2-ol] are 2.82 nM, 19.5 nM, 0.0365 ± 0.0374 µM and 0.118 ± 0.0123 µM.
Regarding `Oc1ccc2c3c(cnc2c1)-c1cccc(F)c1OC3c1ccc(OCCN2CC(CF)C2)cc1` (racemic) [Example 6, 7-fluoro-5-(4-{2-[3-(fluoromethyl)azetidin-1-yl]ethoxy}phenyl)-5H-[1]benzopyrano[4,3-c]quinolin-2-ol], the Ki on ERα (wild type) came to 4.14 nM; at ERα (Y537S mutant), 15.8 nM. Also, the DC50 at ERα [1] was 0.0509 ± 0.00689 µM. Besides, the IC50 at ERα [2] amounted to 0.0826 ± 0.00568 µM.
Consider `Cc1ccc2c(c1)OC(c1ccc(OCCN3CC(CF)C3)cc1)c1c-2cnc2cc(O)ccc12` (racemic) [Example 7, 5-(4-{2-[3-(fluoromethyl)azetidin-1-yl]ethoxy}phenyl)-8-methyl-5H-[1]benzopyrano[4,3-c]quinolin-2-ol], for which the Ki stood at 1.55 nM on ERα (wild type) and 8.55 nM at ERα (Y537S mutant). The DC50 at ERα [1] was found to be 0.0788 ± 0.00738 µM. Besides, the IC50 on ERα [2] is 0.113 ± 0.0209 µM.
Take `Cc1cccc2c1OC(c1ccc(OCCN3CC(CF)C3)cc1)c1c-2cnc2cc(O)ccc12` (racemic) [Example 8, 5-(4-{2-[3-(fluoromethyl)azetidin-1-yl]ethoxy}phenyl)-7-methyl-5H-[1]benzopyrano[4,3-c]quinolin-2-ol]: the Ki on ERα (wild type) came out at 3.2 nM; at ERα (Y537S mutant), 11.4 nM. Further, the DC50 on ERα [1] turned out to be 0.0174 ± 0.00875 µM. In addition, on ERα [2], the IC50 was 0.0683 ± 0.0227 µM.
As for `Oc1ccc2c3c(cnc2c1)-c1cccc(C(F)(F)F)c1OC3c1ccc(OCCN2CC(CF)C2)cc1` (single isomer, unassigned) [Example 2A, 5-(4-{2-[3-(Fluoromethyl)azetidin-1-yl]ethoxy}phenyl)-7-(trifluoromethyl)-5H-[1]benzopyrano[4,3-c]quinolin-2-ol], the Ki at ERα (wild type) is 0.65 nM; at ERα (Y537S mutant), 7.92 nM. In addition, the DC50 on ERα [1] is 0.0513 ± 0.0163 µM. Further, at ERα [2], the 50% inhibitory concentration (IC50) worked out at 0.121 ± 0.0537 µM.
For `Oc1ccc2c3c(cnc2c1)-c1cccc(C(F)(F)F)c1OC3c1ccc(OCCN2CC(CF)C2)cc1` (single isomer, unassigned) [Example 2B, 5-(4-{2-[3-(Fluoromethyl)azetidin-1-yl]ethoxy}phenyl)-7-(trifluoromethyl)-5H-[1]benzopyrano[4,3-c]quinolin-2-ol], the Ki was 60.4 nM at ERα (wild type) and 294 nM on ERα (Y537S mutant). For the same molecule, the DC50 at ERα [1] is more than 2 µM. In addition, the IC50 at ERα [2] is more than 2 µM.
On to `Oc1ccc2c3c(cnc2c1)-c1cccc(Cl)c1OC3c1ccc(OCCN2CC(CF)C2)cc1` (single isomer, unassigned) [Example 4A, 7-Chloro-5-(4-{2-[3-(fluoromethyl)azetidin-1-yl]ethoxy}phenyl)-5H-[1]benzopyrano[4,3-c]quinolin-2-ol], for which the Ki was 16.8 nM at ERα (wild type) and 55 nM on ERα (Y537S mutant). The DC50 at ERα [1] stood at 0.5 µM. Further, on ERα [2], the IC50 came out at 0.846 µM.
Consider `Oc1ccc2c3c(cnc2c1)-c1cccc(Cl)c1OC3c1ccc(OCCN2CC(CF)C2)cc1` (single isomer, unassigned) [Example 4B, 7-Chloro-5-(4-{2-[3-(fluoromethyl)azetidin-1-yl]ethoxy}phenyl)-5H-[1]benzopyrano[4,3-c]quinolin-2-ol], for which the Ki stood at 0.34 nM at ERα (wild type) and 2.34 nM at ERα (Y537S mutant). Also, at ERα [1], the DC50 is 0.00689 µM. Besides, the IC50 at ERα [2] turned out to be 0.0287 µM.
Regarding `Oc1ccc2c3c(cnc2c1)-c1ccc(F)cc1OC3c1ccc(OCCN2CC(CF)C2)cc1` (single isomer, unassigned) [Example 5A, 8-Fluoro-5-(4-{2-[3-(fluoromethyl)azetidin-1-yl]ethoxy}phenyl)-5H-[1]benzopyrano[4,3-c]quinolin-2-ol], the Ki at ERα (wild type) was found to be 12.5 nM; on ERα (Y537S mutant) it was 81.2 nM. For the same molecule, on ERα [1], the DC50 is 0.522 µM. The IC50 on ERα [2] was determined as 0.6 µM.
Turning to `Oc1ccc2c3c(cnc2c1)-c1ccc(F)cc1OC3c1ccc(OCCN2CC(CF)C2)cc1` (single isomer, unassigned) [Example 5B, 8-Fluoro-5-(4-{2-[3-(fluoromethyl)azetidin-1-yl]ethoxy}phenyl)-5H-[1]benzopyrano[4,3-c]quinolin-2-ol], the Ki on ERα (wild type) came out at 1.3 nM; on ERα (Y537S mutant) it was 6.56 nM. For the same molecule, the DC50 on ERα [1] is 0.00949 ± 0.0011 µM. Further, the IC50 on ERα [2] is 0.032 ± 0.00531 µM.
As for `Oc1ccc2c3c(cnc2c1)-c1cccc(F)c1OC3c1ccc(OCCN2CC(CF)C2)cc1` (single isomer, unassigned) [Example 6A, 7-Fluoro-5-(4-{2-[3-(fluoromethyl)azetidin-1-yl]ethoxy}phenyl)-5H-[1]benzopyrano[4,3-c]quinolin-2-ol], the Ki worked out at 8.53 nM on ERα (wild type) and 46 nM at ERα (Y537S mutant). For the same molecule, the DC50 at ERα [1] turned out to be 0.175 µM. Also, the IC50 at ERα [2] was determined as 0.253 µM.
On the same counts, the results for `Oc1ccc2c3c(cnc2c1)-c1cccc(F)c1OC3c1ccc(OCCN2CC(CF)C2)cc1` (single isomer, unassigned) [Example 6B, 7-Fluoro-5-(4-{2-[3-(fluoromethyl)azetidin-1-yl]ethoxy}phenyl)-5H-[1]benzopyrano[4,3-c]quinolin-2-ol] are 1.13 nM, 5.71 nM, 0.00913 µM and 0.0284 µM.
